Measured values taken from ChEMBL document CHEMBL4038347, “Converting Teixobactin into a Cationic Antimicrobial Peptide (AMP)” (2017).
Converted amounts (≈) assume the structure as drawn. Where a SMILES comes first, the peptide text is derived from it. Bridges are numbered along the chain shown (N, C = ends). [ ]: non-standard residue; d: D form. d(aIle) = CC[C@H](C)[C@@H](N)C(=O)O; dNMeF = CN[C@H](Cc1ccccc1)C(=O)O

Key:
Format in all cases: functional
Bacillus subtilis = test: Antibacterial activity against Bacillus subtilis ATCC 6051 after 24 hrs by broth microdilution method; details: ATCC 6051, 24 h
Escherichia coli = test: Antibacterial activity against Escherichia coli ATCC 25922 after 24 hrs by broth microdilution method; details: ATCC 25922, 24 h
Staphylococcus aureus = test: Antibacterial activity against Staphylococcus aureus ATCC 29213 after 24 hrs by broth microdilution method; details: ATCC 29213, 24 h
Pseudomonas aeruginosa = test: Antibacterial activity against Pseudomonas aeruginosa ATCC 27853 after 24 hrs by broth microdilution method; details: ATCC 27853, 24 h

Structure (SMILES) | MIC (Bacillus subtilis) [mg/L] | MIC (Escherichia coli) [mg/L] | MIC (Staphylococcus aureus) [mg/L] | MIC (Pseudomonas aeruginosa) [mg/L]
CC[C@H](C)[C@H](NC(=O)[C@@H](Cc1ccccc1)NC)C(=O)N[C@@H](CCCCN)C(=O)N[C@H](CCCCN)C(=O)N[C@@H](C(=O)N[C@H](C(=O)N[C@@H](CO)C(=O)N[C@H]1C(=O)N[C@@H](C)C(=O)N[C@@H](CCCCN)C(=O)N[C@@H]([C@@H](C)CC)C(=O)O[C@H]1C)[C@@H](C)CC)[C@@H](C)CC (H-[dNMeF]IK[dK][d(aIle)]IS[dT]AKI; ester 8-C) | 1 (≈ 0.795 µM) | 32 (≈ 25.4 µM) | 8 (≈ 6.36 µM) | 32 (≈ 25.4 µM)
CC[C@H](C)[C@H](NC(=O)[C@@H](Cc1ccccc1)NC)C(=O)N[C@@H](CCCCN)C(=O)N[C@H](CCCCN)C(=O)N[C@@H](C(=O)N[C@H](C(=O)N[C@@H](CO)C(=O)N[C@H]1C(=O)N[C@@H](CCCCN)C(=O)N[C@@H](CCCCN)C(=O)N[C@@H]([C@@H](C)CC)C(=O)O[C@H]1C)[C@@H](C)CC)[C@@H](C)CC | 8 (≈ 6.08 µM) | 32 (≈ 24.3 µM) | 32 (≈ 24.3 µM) | 64 (≈ 48.7 µM)
CC[C@H](C)[C@H](NC(=O)[C@@H](Cc1ccccc1)NC)C(=O)N[C@@H](CO)C(=O)N[C@H](CN)C(=O)N[C@@H](C(=O)N[C@H](C(=O)N[C@@H](CN)C(=O)N[C@H]1C(=O)N[C@@H](CN)C(=O)N[C@@H](CCCCN)C(=O)N[C@@H]([C@@H](C)CC)C(=O)O[C@H]1C)[C@@H](C)CC)[C@@H](C)CC | 16 (≈ 13.5 µM) | 64 (≈ 53.9 µM) | 64 (≈ 53.9 µM) | 64 (≈ 53.9 µM)

Second part, the molecule after the results:

MIC (Bacillus subtilis) [mg/L] | MIC (Escherichia coli) [mg/L] | MIC (Staphylococcus aureus) [mg/L] | MIC (Pseudomonas aeruginosa) [mg/L] | Structure (SMILES)
8 (≈ 6.5 µM) | 128 (≈ 104 µM) | 32 (≈ 26 µM) | 128 (≈ 104 µM) | CC[C@H](C)[C@H](NC(=O)[C@@H](Cc1ccccc1)NC)C(=O)N[C@@H](CO)C(=O)N[C@H](CCC(N)=O)C(=O)N[C@@H](C(=O)N[C@H](C(=O)N[C@@H](CN)C(=O)N[C@H]1C(=O)N[C@@H](CN)C(=O)N[C@@H](CCCCN)C(=O)N[C@@H]([C@@H](C)CC)C(=O)O[C@H]1C)[C@@H](C)CC)[C@@H](C)CC
4 (≈ 3.37 µM) | 64 (≈ 53.9 µM) | 16 (≈ 13.5 µM) | 32 (≈ 26.9 µM) | CC[C@H](C)[C@H](NC(=O)[C@@H](Cc1ccccc1)NC)C(=O)N[C@@H](CN)C(=O)N[C@H](CN)C(=O)N[C@@H](C(=O)N[C@H](C(=O)N[C@@H](CO)C(=O)N[C@H]1C(=O)N[C@@H](CN)C(=O)N[C@@H](CCCCN)C(=O)N[C@@H]([C@@H](C)CC)C(=O)O[C@H]1C)[C@@H](C)CC)[C@@H](C)CC
